ChEMBL document CHEMBL2384977, “Synthesis and biological evaluation of novel styryl benzimidazole derivatives as probes for imaging of neurofibrillary tangles in Alzheimer's disease” (Bioorg Med Chem, 2013)

Columns and labels:
Type in all cases: ADME, organism-based
Conditions in all cases: in vivo
Brain [1] = test: Ratio of drug level in ddY mouse brain at 64.5 kBq, iv measured at 2 mins to drug level in ddY mouse brain at 64.5 kBq, iv measured at 60 mins
Brain [2] = test: Ratio of drug level in ddY mouse brain at 7.1 to 21.5 kBq, iv measured at 2 mins to drug level in ddY mouse brain at 7.1 to 21.5 kBq, iv measured at 60 mins
Brain [3] = test: Ratio of drug level in ICR mouse brain at 2.6 to 3.3 MBq, iv measured at 2 mins to drug level in ICR mouse brain at 2.6 to 3.3 MBq, iv measured at 60 mins

`CN(C)c1ccc(/N=N/c2nc3ccc(OCCOCCOCC[18F])cc3s2)cc1` gave a Ratio (Brain [1]) of 1.69.
In the case of `O=C1/C(=C/c2ccc(-c3cccc([125I])c3)o2)NC(=S)N1CCc1c[nH]cn1`, the Ratio (Brain [2]) is reported as 6.16.
In the case of `[11CH3]Nc1ccc(-c2ccc3ccccc3n2)cc1`, the Ratio (Brain [3]) is reported as 5.38.
